The term IC50 denotes the concentration at which inhibition is half-maximal.

The values that follow come from US8975398B2, “NAMPT inhibitors” (AbbVie Inc., priority 2012, dated 2015).

For one assay, the target named is NAMPT (Homo sapiens, UniProt P43490). The experiment in a line: Time-Resolved Fluorescence Resonance Energy Transfer (TR-FRET) Binding Assay of NAMPT with PRPP. To be noted: 2 nM NAMPT, 2 nM probe, 200 uM PRPP and 2.5 mM ATP, equilibrated 16 hours. The procedure: Time-Resolved Fluorescence Resonance Energy Transfer (TR-FRET) Binding Assay of NAMPT with PRPP
Sequence of NAMPT (P43490 whole entry): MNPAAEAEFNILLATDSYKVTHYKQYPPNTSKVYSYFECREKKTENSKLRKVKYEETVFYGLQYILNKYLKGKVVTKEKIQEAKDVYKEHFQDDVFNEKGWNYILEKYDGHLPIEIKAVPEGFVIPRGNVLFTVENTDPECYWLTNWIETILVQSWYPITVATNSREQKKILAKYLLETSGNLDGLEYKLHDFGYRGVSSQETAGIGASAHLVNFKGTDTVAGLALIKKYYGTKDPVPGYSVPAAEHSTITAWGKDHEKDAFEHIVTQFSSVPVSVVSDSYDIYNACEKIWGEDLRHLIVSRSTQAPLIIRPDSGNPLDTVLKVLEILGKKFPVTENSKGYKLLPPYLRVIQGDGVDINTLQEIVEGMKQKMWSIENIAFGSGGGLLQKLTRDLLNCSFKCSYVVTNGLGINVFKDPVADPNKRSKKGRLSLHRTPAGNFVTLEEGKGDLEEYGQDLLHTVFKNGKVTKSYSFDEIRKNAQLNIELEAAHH
Compound handling and data processing were identical to the assay in the absence of substrates (above). Final concentrations were 1× assay buffer, 2% DMSO, 2 nM NAMPT, 2 nM probe, 1 nM Tb-anti-His antibody (Invitrogen #PV5895), 200 uM PRPP and 2.5 mM ATP. Reactions were equilibrated for 16 hours prior to measurement to allow for potential enzymatic modification of test compounds.

Assay [1] addresses NAMPT (human, recombinant, C-terminally His-tagged) (Homo sapiens, UniProt P43490). Description: Time-Resolved Fluorescence Resonance Energy Transfer (TR-FRET) Binding Assay of NAMPT. To be noted: 6.8 nM NAMPT, 200 nM probe, equilibrated 3 hours, absence of substrates. The procedure:
Determination of the utility of compounds having Formula (I) as binders to and inhibitors of NAMPT was performed using Time-Resolved Fluorescence Resonance Energy Transfer (TR-FRET) binding assays.
Time-Resolved Fluorescence Resonance Energy Transfer (TR-FRET) Binding Assay of NAMPT
Test compounds were serially diluted (typically 11 half log dilutions) in neat DMSO to 50× final concentrations prior to dilution with assay buffer (50 mM HEPES (NaOH), pH 7.5, 100 mM NaCl, 10 mM MgCl2, 1 mM DTT, 1% Glycerol) to 3× and 6% DMSO. Six μL were transferred to 384-well low-volume plates (Owens Corning #3673). To this, 12 μL of a 1.5× solution containing enzyme, probe and antibody were added. Final concentrations in the 18 μL, reactions were 1× assay buffer, 2% DMSO, 6.8 nM NAMPT (human, recombinant, C-terminally His-tagged), 200 nM probe (a potent nicotinamide-competitive inhibitor conjugated to Oregon Green 488) and 1 nM Tb-anti-His antibody (Invitrogen #PV5895). Reactions were equilibrated at room temperature for 3 hours prior to reading on an Envision multi-label plate reader (Perkin Elmer; Ex=337 nm, Em=520 and 495 nm). Time-resolved FRET ratios (Em520/Em495) were normalized to controls, plotted as a function of compound concentration and fit with the four-parameter logistic equation to determine IC50s.
On the technique in general: In TR-FRET formats the signal depends on donor and acceptor labels being close together.

Sequence of NAMPT (human, recombinant, C-terminally His-tagged) (P43490 whole entry): as above

For `O=C(Nc1ccc(OC2CCN(C(=O)C3CCCC3)CC2)cc1)C1CN(c2cccnc2)C1` [Example 52, N-(4-{[1-(cyclopentylcarbonyl)piperidin-4-yl]oxy}phenyl)-1-(pyridin-3-yl)azetidine-3-carboxamide], the IC50 was determined as 0.696 nM at NAMPT and 51 nM in assay [1].

As for `CC1(C(=O)N2CCC(Oc3ccc(NC(=O)C4CN(c5cccnc5)C4)cc3)CC2)CCCCC1` [Example 53, N-[4-({1-[(1-methylcyclohexyl)carbonyl]piperidin-4-yl}oxy)phenyl]-1-(pyridin-3-yl)azetidine-3-carboxamide], the IC50 at NAMPT worked out at 0.689 nM; in assay [1] it was 25.6 nM.

Take `O=C(Nc1ccc(OC2CCN(C(=O)c3ccoc3)CC2)cc1)C1CN(c2cccnc2)C1` [Example 54, N-(4-{[1-(furan-3-ylcarbonyl)piperidin-4-yl]oxy}phenyl)-1-(pyridin-3-yl)azetidine-3-carboxamide]: the IC50 on NAMPT was 0.806 nM; in assay [1], 72.1 nM.

Turning to `O=C(Nc1ccc(OC2CCN(C(=O)CC(F)(F)F)CC2)cc1)C1CN(c2cccnc2)C1` [Example 55, 1-(pyridin-3-yl)-N-(4-{[1-(3,3,3-trifluoropropanoyl)piperidin-4-yl]oxy}phenyl)azetidine-3-carboxamide], the IC50 is 2.22 nM at NAMPT and 168 nM in assay [1].

Consider `CC(=O)N1CCC(Oc2ccc(NC(=O)C3CN(c4cccnc4)C3)cc2)CC1` [Example 56, N-{4-[(1-acetylpiperidin-4-yl)oxy]phenyl}-1-(pyridin-3-yl)azetidine-3-carboxamide], for which the IC50 is 0.812 nM on NAMPT and 360 nM in assay [1].

Take `COCC(=O)N1CCC(Oc2ccc(NC(=O)C3CN(c4cccnc4)C3)cc2)CC1` [Example 57, N-(4-{[1-(methoxyacetyl)piperidin-4-yl]oxy}phenyl)-1-(pyridin-3-yl)azetidine-3-carboxamide]: the IC50 stood at 1.07 nM on NAMPT and 180 nM in assay [1].

On to `O=C(Nc1ccc(OC2CCN(C(=O)c3ccsc3)CC2)cc1)C1CN(c2cccnc2)C1` [Example 58, 1-(pyridin-3-yl)-N-(4-{[1-(thiophen-3-ylcarbonyl)piperidin-4-yl]oxy}phenyl)azetidine-3-carboxamide], for which the IC50 at NAMPT amounted to 0.683 nM; in assay [1], 59.5 nM.

As for `Cc1ccsc1C(=O)N1CCC(Oc2ccc(NC(=O)C3CN(c4cccnc4)C3)cc2)CC1` [Example 59, N-[4-({1-[(3-methylthiophen-2-yl)carbonyl]piperidin-4-yl}oxy)phenyl]-1-(pyridin-3-yl)azetidine-3-carboxamide], the figures for the IC50 (on NAMPT; in assay [1]) were 0.606 nM and 27.9 nM, respectively.

Regarding `O=C(Nc1ccc(OC2CCN(C(=O)CN3CCOCC3)CC2)cc1)C1CN(c2cccnc2)C1` [Example 60, N-(4-{[1-(morpholin-4-ylacetyl)piperidin-4-yl]oxy}phenyl)-1-(pyridin-3-yl)azetidine-3-carboxamide], the IC50 on NAMPT is 1.01 nM; in assay [1], 150 nM.

Consider `O=C(Nc1ccc(OC2CCN(C(=O)c3cccs3)CC2)cc1)C1CN(c2cccnc2)C1` [Example 61, 1-(pyridin-3-yl)-N-(4-{[1-(thiophen-2-ylcarbonyl)piperidin-4-yl]oxy}phenyl)azetidine-3-carboxamide], for which the IC50 amounted to 0.675 nM at NAMPT and 33.7 nM in assay [1].

As to `Cc1ccc(C(=O)N2CCC(Oc3ccc(NC(=O)C4CN(c5cccnc5)C4)cc3)CC2)s1` [Example 62, N-[4-({1-[(5-methylthiophen-2-yl)carbonyl]piperidin-4-yl}oxy)phenyl]-1-(pyridin-3-yl)azetidine-3-carboxamide], the 50% inhibitory concentration (IC50) on NAMPT was determined as 0.666 nM; in assay [1], 41.6 nM.

As for `O=C(Nc1ccc(OC2CCN(C(=O)c3ccco3)CC2)cc1)C1CN(c2cccnc2)C1` [Example 63, N-(4-{[1-(furan-2-ylcarbonyl)piperidin-4-yl]oxy}phenyl)-1-(pyridin-3-yl)azetidine-3-carboxamide], the results for the IC50 (at NAMPT; in assay [1]) were 0.514 nM and 52.7 nM, respectively.

Regarding `Cn1cccc1C(=O)N1CCC(Oc2ccc(NC(=O)C3CN(c4cccnc4)C3)cc2)CC1` [Example 64, N-[4-({1-[(1-methyl-1H-pyrrol-2-yl)carbonyl]piperidin-4-yl}oxy)phenyl]-1-(pyridin-3-yl)azetidine-3-carboxamide], the IC50 was 0.927 nM at NAMPT and 55.2 nM in assay [1].

With `CCC(=O)N1CCC(Oc2ccc(NC(=O)C3CN(c4cccnc4)C3)cc2)CC1` [Example 65, N-{4-[(1-propanoylpiperidin-4-yl)oxy]phenyl}-1-(pyridin-3-yl)azetidine-3-carboxamide], the IC50 was found to be 0.704 nM on NAMPT and 121 nM in assay [1].

For `CC1(C(=O)N2CCC(Oc3ccc(NC(=O)C4CN(c5cccnc5)C4)cc3)CC2)CC1` [Example 66, N-[4-({1-[(1-methylcyclopropyl)carbonyl]piperidin-4-yl}oxy)phenyl]-1-(pyridin-3-yl)azetidine-3-carboxamide], the figures for the IC50 (on NAMPT; in assay [1]) were 0.535 nM and 56.6 nM, respectively.

Take `CN(C)CCC(=O)N1CCC(Oc2ccc(NC(=O)C3CN(c4cccnc4)C3)cc2)CC1` [Example 67, N-(4-{[1-(N,N-dimethyl-beta-alanyl)piperidin-4-yl]oxy}phenyl)-1-(pyridin-3-yl)azetidine-3-carboxamide]: the IC50 on NAMPT stood at 0.497 nM; in assay [1], 452 nM.

For `O=C(Nc1ccc(OC2CCN(C(=O)c3nccs3)CC2)cc1)C1CN(c2cccnc2)C1` [Example 68, 1-(pyridin-3-yl)-N-(4-{[1-(1,3-thiazol-2-ylcarbonyl)piperidin-4-yl]oxy}phenyl)azetidine-3-carboxamide], the IC50 at NAMPT was found to be 0.569 nM; in assay [1] it was 80.6 nM.

Turning to `O=C(Nc1ccc(OC2CCN(C(=O)CC3CCCC3)CC2)cc1)C1CN(c2cccnc2)C1` [Example 69, N-(4-{[1-(cyclopentylacetyl)piperidin-4-yl]oxy}phenyl)-1-(pyridin-3-yl)azetidine-3-carboxamide], the IC50 at NAMPT worked out at 0.918 nM; in assay [1], 68.6 nM.

Consider `CC(C)C(C)C(=O)N1CCC(Oc2ccc(NC(=O)C3CN(c4cccnc4)C3)cc2)CC1` (centres unmarked) [Example 70, N-(4-{[1-(2,3-dimethylbutanoyl)piperidin-4-yl]oxy}phenyl)-1-(pyridin-3-yl)azetidine-3-carboxamide], for which the IC50 at NAMPT stood at 0.742 nM; in assay [1], 35.7 nM.

For the compound `Cc1ncccc1N1CC(C(=O)Nc2ccc(C3CCN(C(=O)C(C)(C)O)CC3)cc2)C1` [Example 71, N-{4-[1-(2-hydroxy-2-methylpropanoyl)piperidin-4-yl]phenyl}-1-(2-methylpyridin-3-yl)azetidine-3-carboxamide], the IC50 on NAMPT came out at 14.6 nM; in assay [1], 41.2 nM.

As for `Cc1ccncc1N1CC(C(=O)Nc2ccc(C3CCN(C(=O)C(C)(C)O)CC3)cc2)C1` [Example 72, N-{4-[1-(2-hydroxy-2-methylpropanoyl)piperidin-4-yl]phenyl}-1-(4-methylpyridin-3-yl)azetidine-3-carboxamide], the figures for the IC50 (on NAMPT; in assay [1]) were 7.34 nM and 6.54 nM, respectively.

For `COc1ncccc1N1CC(C(=O)Nc2ccc(C3CCN(C(=O)C(C)(C)O)CC3)cc2)C1` [Example 73, N-{4-[1-(2-hydroxy-2-methylpropanoyl)piperidin-4-yl]phenyl}-1-(2-methoxypyridin-3-yl)azetidine-3-carboxamide], the IC50 at NAMPT worked out at 71.1 nM; in assay [1], 224 nM.
